# Test results as given in patent US20230286973A1, “PROTEIN SECRETION INHIBITORS” (KEZAR LIFE SCIENCES, priority 2020, published 2023).
# pEC50, pIC50: −log10 of the molar value. Like-named read-outs stand apart in the source and are kept apart here.
# What was measured:
# [1] = Liver Microsome Stability Assay (human); settings: human liver microsomes, with NADPH, 1.0 uM compound
# Experimental: (§1) Stability of a compound was assessed in the presence of liver microsomes from various sources—mouse, rat, monkey and human liver microsomes. 1.0 uM compound, 0.4% DMSO in 0.1 M Potassium Phosphate with 1.0 mg/mL liver microsomes, were incubated at 37° C. with or without 1 mM NADPH. The samples were quenched at 0, and 30 minutes.
# [2] = tested on: PD1-ss+10aa/Gaussia Luciferase; assay: Dox-Induced PD1-ss-Gluc Assay; assay type: cell-based; settings: 24 hr Dox induction, 293FRT/TO cells, read-out: 24 hr Dox Inducible PD1ssGluc 293FRT/TO: Mean IC50
# How it was run: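 Compounds were added in DMSO/media with doxycycline and incubated at 37 °C, 5% CO2, on 293 T-REx cells plated one day earlier. These cells stably express, under tetracycline-regulated control, a Gaussia luciferase fused to the PD1 signal peptide plus 10 residues. Structures drawn without stereochemistry were tested as stereoisomer mixtures.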
# [3] = tested on: HER3-ss+4aa/Gaussia Luciferase; assay: Dox-Induced Her3-ss-Gluc Assay; assay type: cell-based; settings: 24 hr Dox induction, 293FRT/TO cells, read-out: 24 hr Dox Inducible Her3(ss + 4)Gluc 293FRT/TO: Mean IC50
# How it was run: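 Flp-In 293 T-REx cells, stable HER3-ss+4aa/Gaussia luciferase insert, hygromycin/blasticidin selected; plated day before; compound in DMSO/media + doxycycline; 37° C., 5% CO2.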
# [4] = tested on: TNFα-FL/Gaussia Luciferase; assay: Dox Induced TNFα-FL-Gluc Assay; assay type: cell-based; settings: for pIC50: 24 hr Dox induction, 293FRT/TO cells, read-out: 24 hr Dox Inducible TNFaFLGluc 293FRT/TO: Mean IC50; for 24 hr Dox Inducible TNFaFLGluc 293FRT/TO: TNF/PD1: ratio of TNFaFLGluc IC50 to PD1ssGluc IC50
# How it was run: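 Cell line: stable Flp-In 293 T-REx, TNFα-FL(1-233)-Gaussia luciferase fusion, T-REx-inducible. Plated day -1; compounds in DMSO/media + doxycycline, 37 °C, 5% CO2. Undefined stereocentres = mixture tested.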
# [5] = Liver Microsome Stability Assay (rat); settings: rat liver microsomes, with NADPH, 1.0 uM compound
# Experimental: as §1
# [6] = tested on: IL-2-FL/Gaussia Luciferase; assay: Dox Induced IL2-FL-Gluc Assay; assay type: cell-based; settings: for pIC50: 24 hr Dox induction, 293FRT/TO cells, read-out: 24 hr Dox Inducible IL2FLGluc 293FRT/TO: Mean IC50; for 24 hr Dox Inducible IL2FLGluc 293FRT/TO: IL2/PD1: ratio of IL2FLGluc IC50 to PD1ssGluc IC50
# How it was run: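 Stable Flp-In 293 T-REx line, Tet-regulated IL-2 (aa 1-153)–Gaussia luciferase fusion; hygromycin/blasticidin selected. Plated day -1; compound + doxycycline added next day; 37° C, 5% CO2.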
# [7] = Liver Microsome Stability Assay (monkey); settings: monkey liver microsomes, with NADPH, 1.0 uM compound
# Experimental: as §1
# [8] = Liver Microsome Stability Assay (mouse); settings: mouse liver microsomes, with NADPH, 1.0 uM compound
# Experimental: as §1
# [9] = tested on: multiple myeloma cell line NCI-H929; assay: H929 Cell Viability Assay; assay type: cell-based, human; settings: Homo sapiens, NCI-H929, 48 h, NCI-H929 cells, Celltiter-Glo
# How it was run: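 Cells in RPMI 1640/10% FBS; compound dilutions in DMSO/media; 48 h, 37° C, 5% CO2; CellTiter-Glo luciferase readout for viability.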
# [10] = tested on: multiple myeloma cell line U266B1; assay: U266 Cell Viability Assay; assay type: cell-based, human; settings: Homo sapiens, U-266, 48 h, U266B1 cells, Celltiter-Glo
# How it was run: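 Luminescent ATP read-out (CellTiter-Glo) after 48 h compound exposure at 37° C., 5% CO2; cells maintained in RPMI 1640/10% FBS/2 mM glutamine/pen-strep, compounds diluted in DMSO/media.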
# [11] = '<=>' given where both are I.A.
SMILES,Liver Microsome Stability (Multiple Species): Human - % Remaining after 30 min w/NADPH [1] [%],pIC50 [2],pIC50 [3],pIC50 [4],24 hr Dox Inducible TNFaFLGluc 293FRT/TO: TNF/PD1 [4],Liver Microsome Stability (Multiple Species): Rat - % Remaining after 30 min w/NADPH [5] [%],pIC50 [6],24 hr Dox Inducible IL2FLGluc 293FRT/TO: IL2/PD1 [6],Liver Microsome Stability (Multiple Species): Monkey - % Remaining after 30 min w/NADPH [7] [%],Liver Microsome Stability (Multiple Species): Mouse - % Remaining after 30 min w/NADPH [8] [%],pEC50 [9],pEC50 [10],pIC50 ([2]; mean),pIC50 ([3]; mean),pIC50 ([4]; mean),"24 hr Dox Inducible TNFaFLGluc 293FRT/TO: TNF/PD1 [4, 11]",pIC50 ([6]; mean),"24 hr Dox Inducible IL2FLGluc 293FRT/TO: IL2/PD1 [6, 11]"
"N#CCn1cnc(/C=C/c2csc(NC(=O)c3cccn3Cc3ccnc(F)c3)n2)c1 [Compound B112, (E)-N-(4-(2-(1-(cyanomethyl)-1H-imidazol-4-yl)vinyl)thiazol-2-yl)-1-((2-fluoropyridin-4-yl)methyl)-1H-pyrrole-2-carboxamide]",1.7,6.66,< 4.60,< 4.60,>115,41.8,< 4.60,>110,1.11,66.5,< 4.60,< 4.60,,,,,,
"CC(C(N)=O)n1cnc(/C=C/c2csc(NC(=O)c3cccn3Cc3ccnc(F)c3)n2)c1 (stereo not drawn) [Compound B113, (E)-N-(4-(2-(1-(1-amino-1-oxopropan-2-yl)-1H-imidazol-4-yl)vinyl)thiazol-2-yl)-1-((2-fluoropyridin-4-yl)methyl)-1H-pyrrole-2-carboxamide]",7.08,< 4.60,< 4.60,< 4.60,<=>1.00,69.7,< 4.60,<=>1.0,3.11,68.2,< 4.60,< 4.60,,,,,,
"O=C(Nc1nc(/C=C/c2c[nH]cn2)cs1)c1cccn1Cc1ccnc(F)c1 [Compound B114, (E)-N-(4-(2-(1H-imidazol-4-yl)vinyl)thiazol-2-yl)-1-((2-fluoropyridin-4-yl)methyl)-1H-pyrrole-2-carboxamide]",30.7,5.28,< 4.60,< 4.60,>4.76,27.3,< 4.60,>4.8,43.4,59.3,< 4.60,< 4.60,,,,,,
NC(=O)Cn1cnc(/C=C/c2csc(NC(=O)c3cccn3Cc3ccnc(F)c3)n2)c1 [Compound B115],12.8,< 4.60,< 4.60,< 4.60,<=>1.00,30,< 4.60,<=>1.0,11.5,70.7,< 4.60,< 4.60,,,,,,
"Cc1c(/C=C/c2csc(NC(=O)c3cccn3Cc3ccnc(F)c3)n2)ncn1C(C)C [Compound B116, (E)-1-((2-fluoropyridin-4-yl)methyl)-N-(4-(2-(1-isopropyl-5-methyl-1H-imidazol-4-yl)vinyl)thiazol-2-yl)-1H-pyrrole-2-carboxamide]",0.16,,,,,8.66,,,0.16,11.3,5.07,5.02,7.98,5.43,4.73,1780,5.28,500
"CCn1cnc(/C=C/c2csc(NC(=O)c3cccn3Cc3ccnc(F)c3)n2)c1C [Compound B117, (E)-N-(4-(2-(1-ethyl-5-methyl-1H-imidazol-4-yl)vinyl)thiazol-2-yl)-1-((2-fluoropyridin-4-yl)methyl)-1H-pyrrole-2-carboxamide]",0.29,,,,,4.95,,,0.22,15.8,4.77,4.67,7.50,< 4.60,4.63,743,< 4.60,>790
"Cc1c(/C=C/c2csc(NC(=O)c3cccn3Cc3ccnc(F)c3)n2)ncn1C(C)CO (stereo not drawn) [Compound B118, (E)-1-((2-fluoropyridin-4-yl)methyl)-N-(4-(2-(1-(1-hydroxypropan-2-yl)-5-methyl-1H-imidazol-4-yl)vinyl)thiazol-2-yl)-1H-pyrrole-2-carboxamide]",0.37,,,,,14.9,,,0.21,40.4,< 4.60,< 4.60,6.61,< 4.60,< 4.60,>101,< 4.60,>100
"CCOC(=O)C(C)n1cnc(/C=C/c2csc(NC(=O)c3cccn3Cc3ccnc(F)c3)n2)c1C (stereo not drawn) [Compound B119, ethyl (E)-2-(4-(2-(2-(1-((2-fluoropyridin-4-yl)methyl)-1H-pyrrole-2-carboxamido)thiazol-4-yl)vinyl)-5-methyl-1H-imidazol-1-yl)propanoate]",0.15,,,,,0.7,,,0.1,2.37,4.88,4.81,7.29,5.05,4.67,418,5.00,200
"COC(=O)Cn1cnc(/C=C/c2csc(NC(=O)c3cccn3Cc3ccnc(F)c3)n2)c1C [Compound B120, methyl (E)-2-(4-(2-(2-(1-((2-fluoropyridin-4-yl)methyl)-1H-pyrrole-2-carboxamido)thiazol-4-yl)vinyl)-5-methyl-1H-imidazol-1-yl)acetate]",0.24,,,,,2.69,,,0.15,6.6,< 4.60,< 4.60,5.57,< 4.60,< 4.60,>9.29,< 4.60,>9.3
